According to patent publication US20220119868A1, “PROFILING RNA-SMALL MOLECULE BINDING SITES WITH OLIGONUCLEOTIDES” (priority 2018, published 2022):

What was measured:
[1] = system: RNA library A (5-nucleotide hairpin library); experiment: 2DCS selection with LOGOS analysis; assay type: binding; conditions: 5-nucleotide hairpins
Description: (§1) Identification of RNA-binding Small Molecules by 2DCS. […] We have previously validated the secondary structures formed by members of RNA libraries by enzymatic mapping^8, 12, 34. These discrete RNA motifs were selected because they are present in cellular RNAs. Due to the library-versus-library nature of these studies, they represent the largest screens completed to date, probing >52,000,000 interactions. Of the 1,987 compounds probed, 239 bound RNA (12.0%).
A final screen was then completed in which the 91 array-immobilized compounds were incubated with all five RNA motif libraries separately in the presence of oligonucleotide competitors F-J, d(AT)11 and d(GC)11. Oligonucleotides F-J mimic regions common to all library members, restricting binding to the randomized regions. (Note: oligonucleotide J was not used for hairpin selections.) After rigorous washing to remove unbound RNAs, bound RNAs were harvested and identified by RNA-seq. By completing selections under conditions of high oligonucleotides stringency (by use of excess competitor oligonucleotides), these studies identified small molecules that bound RNA motifs avidly. A challenge in the small molecule RNA-targeting area has been the development and identification of selective interactions between small molecules and RNAs. In myriad studies, 2DCS has defined selective RNA motif-small molecule interactions with varied affinities^11, 12, 35, 36.
Identification of Privileged RNA Space by RNA-Seq. Using RNA-seq, a large sequencing dataset was obtained for each pool of RNAs that were specifically bound to each small molecule. RNA libraries A, B, C, D, and E had at least 12.1-fold (average: 133.1±111.8), 6.7-fold (average: 80.8±78.7), 9.9-fold (average: 103.5±110.6), 7.2-fold (average: 75.7±65.6), and 6.0-fold (average: 36.3±31.6) coverage for each small molecule selection, respectively, as compared to the number of unique sequences within the corresponding RNA library. It was previously shown that at least 6-fold coverage is required to generate binding landscape maps^12. RNA-seq data were then analyzed by High Throughput Structure-Activity Relationships Through Sequencing (HiT-StARTS)^12 to identify the privileged RNA motifs that bind each small molecule. Briefly, the frequency of occurrence of a selected RNA was compared to the frequency of occurrence of the same RNA from RNA-seq analysis of the starting RNA library to account for biases arising during transcription and RT-PCR. This pooled population comparison affords the parameter Zobs, a metric of statistical confidence. A large, positive Zobs indicates a strong preference for binding the motif while a negative Zobs indicates a strong preference against binding the motif. A Fitness Score is assigned by normalizing the Zobs values to the most statistically significant small molecule-RNA interaction to 100. […] Structure-Activity Relationships (SAR). Next, the most privileged RNA motif binders and the most discriminated against RNA motifs (non-binders) for each compound selection was analyzed by generating LOGOS from the highest and lowest 0.5% of Zobs scores^37. By comparing the LOGOS for related compounds, or DiffLogos, SAR can be defined. Indeed, various hit compounds differ by a single functional group, including compounds A and B (FIG. 5). […] In contrast, the RNA motifs most hindered from binding compounds 1 and 2 (discriminated against) are quite different (FIG. 5B).
Four compounds that share an indolylpyrimidine-2,4-diamine core bound members of A (5-nucleotide hairpin library).
Oligonucleotides. All DNA oligonucleotides were purchased from Integrated DNA Technologies, Inc. (IDT) and used without further purification. RNA oligonucleotide competitors were purchased from Dharmacon and de-protected according to the manufacturer's standard procedure. All oligonucleotide solutions were prepared with NANOpure water. […]

[2] = molecular target: HCV RNA motif 5′CUG3′/3′G_C5′ (SL II); experiment: In solution, fluorescence-based binding affinity assay, HCV RNA motifs; design: species or system Hepatitis C virus
Description: (§2) The compounds bind their cognate loops in the 3′ UTR with mid-nanomolar to low micromolar affinities (Table 1). It was next determined if the identified compounds could inhibit HCV RNA replication in HCV subgenomic replicon cells, in particular SGR-Neo-RLuc-JFH1-2A replicon cells established in Huh-7.5 (human hepatoma cells). In this system, an autonomously replicating viral RNA replicon is used to monitor efficiently RNA replication of the virus in the absence of spread of viral RNA to adjacent cells. This is achieved by replacing the structural proteins required to assembly progeny virions with a drug selectable marker (Neo) and a Renilla luciferase (RLuc) reporter gene. Once this replicon has been delivered to human hepatoma cells and selection with G418 (conferred by Neo selectable marker) has occurred, the expression and Renilla luciferase activity is directly correlated with the level of HCV replication^57.
(§3) where n1 is the size of Population 1 (number of sequencing reads for a given RNA from RNA-seq analysis of the selected library), n2 is the size of Population 2 (number of sequencing reads for the same RNA from RNA-seq analysis of the starting library), p1 is the observed proportion of Population 1 (the number of reads for a given RNA from selected library/total number of reads), and p2 is the observed proportion for Population 2 (the number of reads for the same RNA in the starting library/total number of reads). Generation of Logos and DiffLogos: Zobs corresponding to the highest (enriched) 0.5% and lowest (discriminated against) 0.5% scores were analyzed to generate consensus sequences, or Logos. The resulting list of sequences were converted to position weight matrix (PWM) lists for each compound. “Enriched” and “discriminated” sequences were kept separate using JMP®, Version <13.2.1>. SAS Institute Inc., Cary, N.C., 1989-2007. The R package Difflogo,^16 which is part of Bioconductor, was utilized to create the sequence logos from PWM lists for each compound and visually compare the differences between them. Binding Affinity Measurements. Dissociation constants were determined using an in solution, fluorescence-based assay. […] Serial dilutions (1:2) of the small molecule were then completed in 1× Assay Buffer supplemented with 1 mM MgCl2. The solutions were incubated for 30 min at room temperature, transferred to a 96-well plate, and fluorescence intensity measured on a BioTek-FLx800 plate reader. The change in fluorescence intensity as a function of small molecule concentration was fit to a one site binding model per equation 3: […]
(§4) Effect of compounds on HCV replication. […] Cytotoxicity assays. […] Oligonucleotide profiling of target engagement in vitro. […] Primers can be found in Table 4. […] Inhibition of kinases. […] . Figure S7C).

[3] = molecular target: HCV RNA motif 5′GUG3′/3′C_C5′ (SL I and SL III); experiment: as above; design: species or system Hepatitis C virus
Description: as §2, §3, §4

[4] = molecular target: HCV RNA motif 5′UAG3′/3′A_C5′ (SL I); experiment: as above; design: species or system Hepatitis C virus
Description: as §2, §3, §4

[5] = system: HCV replication, SGR-Neo-RLuc-JFH1-2A replicon cells established in Huh-7.5; experiment: HCV replication in subgenomic replicon cells (Renilla luciferase); assay type: cell-based, Hepatitis C virus; conditions: Hepatitis C virus, Huh7.5; replicon cells, luciferase activity; read-out: IC50, inhibition of HCV replication
Description: as §2
They were therefore assayed for their ability to inhibit HCV replication using this replicon system, with DMSO vehicle and 2′-C-methyladenosine^17 triphosphate serving as negative and positive controls, respectively.
as §4

panel of 22 kinases = experiment: In vitro inhibition of a panel of kinases; assay type: biochemical; conditions: 20 μM; panel of 22 kinases
RNA motif libraries A-E = experiment: 2DCS: array-immobilized small molecules incubated with RNA motif libraries; assay type: binding; conditions: libraries C-E
Description: as §1
A final screen was then completed in which the 91 array-immobilized compounds were incubated with all five RNA motif libraries separately in the presence of oligonucleotide competitors F-J, d(AT)11 and d(GC)11. Oligonucleotides F-J mimic regions common to all library members, restricting binding to the randomized regions. (Note: oligonucleotide J was not used for hairpin selections.) After rigorous washing to remove unbound RNAs, bound RNAs were harvested and identified by RNA-seq. […]
Identification of Privileged RNA Space by RNA-Seq. […] RNA-seq data were then analyzed by High Throughput Structure-Activity Relationships Through Sequencing (HiT-StARTS)^12 to identify the privileged RNA motifs that bind each small molecule. […] Next, the most privileged RNA motif binders and the most discriminated against RNA motifs (non-binders) for each compound selection was analyzed by generating LOGOS from the highest and lowest 0.5% of Zobs scores^37. […]

SMILES: Cn1ccc2cc(-c3cc(NCc4nc5ccccc5[nH]4)nc(N)n3)ccc21 [Compound 3]
- nucleotide preference in position 1 (LOGOS) [1]: strong preference for G
- nucleotide preference in position 4 (LOGOS) [1]: G>U>>A or C

SMILES: O=C(Nc1cc(C2=NCCN2)cc(C2=NCCN2)c1)c1ccc(C(=O)Nc2cc(C3=NCCN3)cc(C3=NCCN3)c2)cc1 [Compound 9]
- Affinity [2]: N.B.
- Affinity [3]: N.B.
- Kd [4]: 1.3 ± 0.5 µM
- IC50 [5]: > 100 µM
- kinases inhibited in the panel (panel of 22 kinases): No kinases were significantly inhibited

SMILES: Cn1ccc2cc(-c3cc(NCc4cccnc4)nc(N)n3)ccc21 [Compound 6]
- nucleotide preference in position 4 (LOGOS) [1]: G≈U>>A or C

SMILES: CNc1nc(Nc2ccc(C3=NCCN3)cc2)nc(Nc2ccc(C3=NCCN3)cc2)n1 [Compound 2]
- closing base pair preference (LOGOS) (RNA motif libraries A-E): potential preference for GU closing base pairs

SMILES: C[C@@]1(O)[C@H](O)[C@@H](CO)O[C@H]1n1cnc2c(N)ncnc21 [2′-C-methyladenosine, reference compound]
- IC50 [5]: 4.5 ± 0.1 µM

SMILES: O=C(Nc1cccc(C2=NCCN2)c1)c1ccc(-c2ccc(C(=O)Nc3cccc(C4=NCCN4)c3)cc2)cc1 [Compound 10]
- Kd [2]: 7.1 ± 4.2 µM
- Kd [3]: 3.35 ± 0.77 µM
- Kd [4]: 0.46 ± 0.14 µM
- IC50 [5]: 19 ± 2 µM
- kinases inhibited in the panel (panel of 22 kinases): No kinases were significantly inhibited

SMILES: Cn1ccc2cc(-c3cc(NCc4cccc(C(F)(F)F)c4)nc(N)n3)ccc21 [Compound 5]
- nucleotide preference in position 4 (LOGOS) [1]: G>U>>A or C

SMILES: COc1cc(Nc2cc(-c3ccc4c(ccn4C)c3)nc(N)n2)cc(OC)c1OC [Compound 4]
- nucleotide preference in position 1 (LOGOS) [1]: strong preference for G
- nucleotide preference in position 4 (LOGOS) [1]: G>C>>A or U
